According to patent publication US8012963B2, “3,4-dihydro-2H-benzo[1,4]oxazine and thiazine derivatives as CETP inhibitors” (Janssen Pharmaceutica N.V., priority 2006, dated 2011):
Values joined by “and” are separate entries in the source; they are usually repeats but may differ in a detail not shown here. Equal entries are not always repeated.

Each molecule was assayed against T1, CETP (Homo sapiens, UniProt P11597) (assay: CETP in vitro assay ([3H]CE-HDL transfer, Amersham kit TRKQ7005; modified protocol in human plasma)). Conditions: 1 μM compound; multiple values = multiple measurements.
T1 construct: from tissue; host or cells: human plasma from normal volunteers
T1 sequence (P11597 18-493): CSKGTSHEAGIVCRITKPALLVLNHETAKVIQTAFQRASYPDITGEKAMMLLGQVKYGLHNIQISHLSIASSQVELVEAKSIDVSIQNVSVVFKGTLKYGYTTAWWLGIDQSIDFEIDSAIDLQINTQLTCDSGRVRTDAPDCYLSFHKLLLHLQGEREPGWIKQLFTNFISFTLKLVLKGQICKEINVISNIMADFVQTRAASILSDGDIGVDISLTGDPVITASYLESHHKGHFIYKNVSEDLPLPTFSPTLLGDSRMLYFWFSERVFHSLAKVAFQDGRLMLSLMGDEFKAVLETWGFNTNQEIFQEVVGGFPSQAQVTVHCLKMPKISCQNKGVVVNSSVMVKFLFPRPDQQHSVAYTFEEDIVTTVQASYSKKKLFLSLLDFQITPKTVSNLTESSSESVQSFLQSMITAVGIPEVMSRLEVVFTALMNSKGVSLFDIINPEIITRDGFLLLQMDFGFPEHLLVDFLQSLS
Assay type: biochemical
Summary of the method: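 Normal-volunteer human plasma was incubated ≥4 hr at 37 °C with approx. 25 μg/ml [3H]CE-HDL and compound in DMSO, with a 4 °C blank for non-specific transfer. HDL was separated by Dextralip/MgCl2 precipitation and centrifugation, then supernatant radioactivity counted. IC50 came from % control versus concentration.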

inhibition at 1 µM [%] | SMILES
0 | COCCCC1COc2c(-c3cccc(OC(F)(F)F)c3)cccc2N1CC(O)C(F)(F)F (centres unmarked) [Compound 55]
19 | COc1ccc(C2COc3c(-c4cccc(OC(F)(F)F)c4)cccc3N2CC(O)C(F)(F)F)s1 (centres unmarked) [Compound 62, 1,1,1-Trifluoro-3-[3-(5-methoxy-thiophen-2-yl)-8-(3-trifluoromethoxy-phenyl)-2,3-dihydro-benzo[1,4]oxazin-4-yl]-propan-2-ol]

Same assay, conditions: 1 μM compound; multiple values = multiple measurements; 1 µM

% Inhibition @ 1 μM | SMILES
13% | OCCCC1COc2c(-c3cccc(OC(F)(F)F)c3)cccc2N1CC(O)C(F)(F)F (centres unmarked) [Compound 52, 3-[4-(3,3,3-Trifluoro-2-hydroxy-propyl)-8-(3-trifluoromethoxy-phenyl)-3,4-dihydro-2H-benzo[1,4]oxazin-3-yl]-propan-1-ol]
1% | OCCCC1COc2c(-c3cccc(OC(F)(F)F)c3)cccc2N1CC(O)C(F)(F)F (centres unmarked) [Compound 54, 3-[4-(3,3,3-Trifluoro-2-hydroxy-propyl)-8-(3-trifluoromethoxy-phenyl)-3,4-dihydro-2H-benzo[1,4]oxazin-3-yl]-propan-1-ol]
9% | CC(C)(C)C(=O)CC1COc2c(-c3cccc(OC(F)(F)F)c3)cccc2N1CC(O)C(F)(F)F (centres unmarked) [Compound 56, 3,3-Dimethyl-1-[4-(3,3,3-trifluoro-2-hydroxy-propyl)-8-(3-trifluoromethoxy-phenyl)-3,4-dihydro-2H-benzo[1,4]oxazin-3-yl]-butan-2-one]
0% | CC(C)(C)C(=O)CC1COc2c(-c3cccc(OC(F)(F)F)c3)cccc2N1CC(O)C(F)(F)F (centres unmarked) [Compound 57, 3,3-Dimethyl-1-[4-(3,3,3-trifluoro-2-hydroxy-propyl)-8-(3-trifluoromethoxy-phenyl)-3,4-dihydro-2H-benzo[1,4]oxazin-3-yl]-butan-2-one]
60% and 96% | CCc1ccc(C2COc3c(-c4cccc(OC(F)(F)F)c4)cccc3N2CC(O)C(F)(F)F)s1 (centres unmarked) [Compound 58, 3-[3-(5-Ethyl-thiophen-2-yl)-8-(3-trifluoromethoxy-phenyl)-2,3-dihydro-benzo[1,4]oxazin-4-yl]-1,1,1-trifluoro-propan-2-ol]
0% | CCc1ccc(C2COc3c(-c4cccc(OC(F)(F)F)c4)cccc3N2CC(O)C(F)(F)F)s1 (centres unmarked) [Compound 59, 3-[3-(5-Ethyl-thiophen-2-yl)-8-(3-trifluoromethoxy-phenyl)-2,3-dihydro-benzo[1,4]oxazin-4-yl]-1,1,1-trifluoro-propan-2-ol]
0% | COc1ccsc1C1COc2c(-c3cccc(OC(F)(F)F)c3)cccc2N1CC(O)C(F)(F)F (centres unmarked) [Compound 60, 1,1,1-Trifluoro-3-[3-(3-methoxy-thiophen-2-yl)-8-(3-trifluoromethoxy-phenyl)-2,3-dihydro-benzo[1,4]oxazin-4-yl]-propan-2-ol]
3% | COc1ccsc1C1COc2c(-c3cccc(OC(F)(F)F)c3)cccc2N1CC(O)C(F)(F)F (centres unmarked) [Compound 61, 1,1,1-Trifluoro-3-[3-(3-methoxy-thiophen-2-yl)-8-(3-trifluoromethoxy-phenyl)-2,3-dihydro-benzo[1,4]oxazin-4-yl]-propan-2-ol]
17% | COc1ccc(C2COc3c(-c4cccc(OC(F)(F)F)c4)cccc3N2CC(O)C(F)(F)F)s1 (centres unmarked) [Compound 63, 1,1,1-Trifluoro-3-[3-(5-methoxy-thiophen-2-yl)-8-(3-trifluoromethoxy-phenyl)-2,3-dihydro-benzo[1,4]oxazin-4-yl]-propan-2-ol]
79% and 91% | OC(CF)CN1c2cccc(-c3cccc(OC(F)(F)F)c3)c2OCC1c1cccc(OC(F)(F)C(F)F)c1 (centres unmarked) [Compound 68, 1-Fluoro-3-[3-[3-(1,1,2,2-tetrafluoro-ethoxy)-phenyl]-8-(3-trifluoromethoxy-phenyl)-2,3-dihydro-benzo[1,4]oxazin-4-yl]-propan-2-ol]

Same assay, conditions: multiple values = multiple measurements

IC50 [nM] | SMILES
502 | CCc1ccc(C2COc3c(-c4cccc(OC(F)(F)F)c4)cccc3N2CC(O)C(F)(F)F)s1 (centres unmarked) [Compound 58, 3-[3-(5-Ethyl-thiophen-2-yl)-8-(3-trifluoromethoxy-phenyl)-2,3-dihydro-benzo[1,4]oxazin-4-yl]-1,1,1-trifluoro-propan-2-ol]
127 | OC(CF)CN1c2cccc(-c3cccc(OC(F)(F)F)c3)c2OCC1c1cccc(OC(F)(F)C(F)F)c1 (centres unmarked) [Compound 68, 1-Fluoro-3-[3-[3-(1,1,2,2-tetrafluoro-ethoxy)-phenyl]-8-(3-trifluoromethoxy-phenyl)-2,3-dihydro-benzo[1,4]oxazin-4-yl]-propan-2-ol]
